Experimental data: patent US20130224219A1, “DRUG AND METHOD FOR THE PROPHYLAXIS OF HIV INFECTION AND FOR THE PROPHYLAXIS AND TREATMENT OF DISEASES CAUSED BY OR ASSOCIATED WITH HIV, INCLUDING AIDS” (priority 2010, published 2013)

System: HIV-1-LAI
Test: Inhibition of HIV replication in human peripheral blood mononuclear cells infected in vitro, p24 ELISA
Format: cell-based
Details: Human immunodeficiency virus 1, PBMC, read-out: inhibition of HIV replication (nucleocapsid core protein p24 in cell supernatants)
Protocol: Antiretroviral action of the claimed medicinal agent was studied by inhibiting the replication of HIV in the culture of mononuclear cells of the peripheral human blood which were infected in vitro by the strain of HIV-1-LAI. Effective inhibition of HIV replication was evaluated by the content of basic nuclecapsid protein r24 in the supernatant of HIV.
Human peripheral blood mononuclear cells were isolated from the blood of healthy seronegative donors by density gradient centrifugation of Ficoll-Hypaque. Cells were activated for 3 days with […] phytogemmaglyutin P and 5 ME/ml of recombinant human interleukin-2 […]
Cell culture supernatants were collected at day 7 after infection. Efficacy of the drugs was determined by the inhibition of HIV replication, which was evaluated by content nucleocapsid core protein p24 of HIV in cell supernatants by ELISA (Retrotek Elisa kit).
Antiretroviral effect of the claimed medicinal agent studied by inhibiting HIV replication in cultured peripheral blood mononuclear cells of human infected in vitro HIV-1-LAI. Effective inhibition of HIV replication was evaluated by the content of basic nucleocapsid protein p24 in the supernatants of HIV. […]

SMILES: Cc1cn([C@H]2C[C@H](N=[N+]=[N-])[C@@H](CO)O2)c(=O)[nH]c1=O [AZT, zidovudine]
- inhibition at 1 µM: 99%
